Measurements as given in the supplement of paper PMC10307832.

Legend:
Test in all cases: relative viability (nuclei count vs DMSO), 5 days (fraction); higher = more cells survive
Kobe2602 + Luminespib = compound: C1=CC(=CC=C1NC(=S)NNC2=C(C=C(C=C2[N+](=O)[O-])C(F)(F)F)[N+](=O)[O-])F [Kobe2602] + CCNC(=O)c1noc(-c2cc(C(C)C)c(O)cc2O)c1-c1ccc(CN2CCOCC2)cc1 [Luminespib] (partner 0.01 µM)
Procedure, shortened: (§1)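 Lung cancer cell lines in 1536-well plates got either a single drug or a fixed anchor-drug dose together with five library-drug doses (not always all listed) in √10 steps, by pin tool, on the day after seeding. Nuclei were counted after 5 days, and relative viability is the treated-to-vehicle ratio of nuclei counts. Values are medians of duplicate plates.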

Kobe2602 + Pemetrexed = compound: C1=CC(=CC=C1NC(=S)NNC2=C(C=C(C=C2[N+](=O)[O-])C(F)(F)F)[N+](=O)[O-])F [Kobe2602] + Nc1nc2[nH]cc(CCc3ccc(C(=O)N[C@@H](CCC(=O)O)C(=O)O)cc3)c2c(=O)[nH]1 [Pemetrexed] (partner 0.2 µM)
Procedure, shortened: as §1

Cabozantinib + Foretinib = compound: COc1cc2nccc(Oc3ccc(NC(=O)C4(C(=O)Nc5ccc(F)cc5)CC4)cc3)c2cc1OC [Cabozantinib] + COc1cc2c(Oc3ccc(NC(=O)C4(C(=O)Nc5ccc(F)cc5)CC4)cc3F)ccnc2cc1OCCCN1CCOCC1 [Foretinib] (partner 0.25 µM)
Procedure, shortened: as §1

Zosuquidar + OSI-027 = compound: O[C@@H](COc1cccc2ncccc12)CN1CCN([C@@H]2c3ccccc3[C@@H]3[C@H](c4ccccc42)C3(F)F)CC1 [Zosuquidar] + COc1cccc2cc(-c3nc([C@H]4CC[C@H](C(=O)O)CC4)n4ncnc(N)c34)[nH]c12 [OSI-027] (partner 0.5 µM)
Procedure, shortened: as §1

Row | Cell Line | relative viability (Kobe2602 + Luminespib; first compound 0.2 µM) | relative viability (Kobe2602 + Luminespib; first compound 0.6325 µM) | relative viability (Kobe2602 + Luminespib; first compound 2 µM) | relative viability (Kobe2602 + Luminespib; first compound 6.325 µM) | relative viability (Kobe2602 + Luminespib; first compound 20 µM) | relative viability (Kobe2602 + Pemetrexed; first compound 0.2 µM) | relative viability (Kobe2602 + Pemetrexed; first compound 0.6325 µM) | relative viability (Kobe2602 + Pemetrexed; first compound 2 µM) | relative viability (Kobe2602 + Pemetrexed; first compound 6.325 µM) | relative viability (Kobe2602 + Pemetrexed; first compound 20 µM) | relative viability (Cabozantinib + Foretinib; first compound 0.06325 µM) | relative viability (Cabozantinib + Foretinib; first compound 0.6325 µM) | relative viability (Cabozantinib + Foretinib; first compound 2 µM) | relative viability (Zosuquidar + OSI-027; first compound 0.01 µM) | relative viability (Zosuquidar + OSI-027; first compound 0.03162 µM) | relative viability (Zosuquidar + OSI-027; first compound 0.1 µM) | relative viability (Zosuquidar + OSI-027; first compound 0.3162 µM) | relative viability (Zosuquidar + OSI-027; first compound 1 µM) | relative viability (Cabozantinib + Foretinib; first compound 0.02 µM) | relative viability (Cabozantinib + Foretinib; first compound 0.2 µM)
1 | LK-2 | 0.189 | 0.204 | 0.182 | 0.154 | 0.195 | 0.259 | 0.188 | 0.279 | 0.248 | 0.328 | 1.27 | 1.52 | 0.863 | 0.172 | 0.216 | 0.21 | 0.209 | 0.174 |  | 
2 | H3255 | 0.769 | 0.981 | 0.902 | 0.937 | 0.878 | 0.549 | 0.544 | 0.57 | 0.629 | 0.584 | 1.01 | 0.979 | 1.07 | 0.639 | 0.532 | 0.451 | 0.624 | 0.565 | 0.773 | 
3 | NCI-H2347 | 0.454 | 0.369 | 0.793 |  | 0.756 | 0.432 | 0.467 | 0.427 | 0.443 | 0.431 | 0.916 | 1.11 | 1.05 | 0.434 | 0.398 | 0.238 | 0.481 | 0.475 | 0.842 | 1.28
4 | CAL-12T | 0.358 | 1.01 | 0.241 | 0.362 | 0.233 | 1.2 | 1.14 | 1.24 | 1.1 | 1.14 | 1.31 | 1.08 | 1.18 | 0.715 | 0.867 | 0.478 | 0.951 | 0.562 | 1.22 | 1.17
5 | A-427 | 0.943 | 0.872 | 0.85 | 0.893 | 0.911 | 0.993 | 1.08 | 0.963 | 0.956 | 0.902 | 1.28 | 0.967 | 0.786 | 0.409 | 0.511 | 0.4 | 0.507 | 0.501 | 1.09 | 0.89
6 | HARA | 0.752 | 1.05 | 0.688 | 0.776 | 0.69 | 0.228 | 0.296 | 0.255 | 0.239 | 0.313 | 1.02 | 0.949 | 0.691 | 0.49 |  | 0.415 | 0.564 | 0.398 | 1.04 | 0.711
7 | NCI-H2170 | 0.856 | 0.922 | 0.703 | 0.944 | 0.719 | 0.293 | 0.26 | 0.242 | 0.295 | 0.263 | 0.999 | 0.949 | 0.974 | 0.701 | 0.731 | 0.641 | 0.743 | 0.713 | 1.01 | 1
8 | NCI-H2023 | 0.596 | 0.783 | 0.759 | 0.528 | 0.156 | 0.218 | 0.255 | 0.194 | 0.211 | 0.0788 | 1.2 | 0.956 | 0.896 | 0.354 | 0.401 | 0.325 | 0.665 | 0.427 | 0.917 | 1.05
